BigSolDB 2.1

Cl.NCCCC[C@H](N)C(=O)O
Details | solubility (mole fraction)
in DMSO, 282.8 K | 0.0179
in DMSO, 288.2 K | 0.0243
in DMSO, 293 K | 0.0301
in DMSO, 298.1 K | 0.0357
in DMSO, 303.3 K | 0.0391
in DMSO, 308.4 K | 0.0432
in DMSO, 312.8 K | 0.0469
in DMSO, 318.1 K | 0.0516
in DMSO, 323.2 K | 0.0529
in DMSO, 328.3 K | 0.0561
in ethanol, 288.1 K | 6.71e-06
in ethanol, 292.8 K | 8.31e-06
in ethanol, 298.1 K | 9.91e-06
in ethanol, 303 K | 1.09e-05
in ethanol, 308.1 K | 1.22e-05
in ethanol, 312.7 K | 1.41e-05
in ethanol, 318.2 K | 1.63e-05
in ethanol, 322.9 K | 1.76e-05
in ethanol, 328.3 K | 1.92e-05
in ethylene glycol, 282.9 K | 0.00769
in ethylene glycol, 288 K | 0.0108
in ethylene glycol, 293.1 K | 0.0146
in ethylene glycol, 298.2 K | 0.0183
in ethylene glycol, 303.2 K | 0.022
in ethylene glycol, 307.9 K | 0.0259
in ethylene glycol, 312.9 K | 0.0298
in ethylene glycol, 318 K | 0.0326
in ethylene glycol, 322.7 K | 0.0354
in ethylene glycol, 328.1 K | 0.0377
in methanol, 297.9 K | 0.000283
in methanol, 303 K | 0.000368
in methanol, 308.1 K | 0.000433
in methanol, 312.8 K | 0.000501
in methanol, 318.1 K | 0.00055
in methanol, 323 K | 0.000592
in methanol, 327.8 K | 0.000637
in water, 283 K | 0.0497
in water, 288.1 K | 0.0543
in water, 292.9 K | 0.0587
in water, 298.1 K | 0.0618
in water, 302.8 K | 0.0627
in water, 308 K | 0.0707
in water, 313.3 K | 0.0833
in water, 317.9 K | 0.0925
in water, 323 K | 0.102
in water, 328.2 K | 0.111
